This passage reports inhibition and melting point results from patent US20030162818A1, “Acylsulfonamide derivative” (AJINOMOTO CO. INC., priority 1997, published 2003).

The test system of one series is HepG2 cells. The series is described as follows: Measurement of intracellular fatty acid synthesis inhibition activity (FA biosynthesis from [14C]-glucose). The class given is cell-based. The settings on record: Homo sapiens, 3.0 × 10^−5 M compound, 3 hours culture with [14C]-glucose. Here is the method:
Measurement of Intracellular Fatty Acid Synthesis Inhibition Activity (FA Biosynthesis Inhibition Activity)
Each of the compounds produced in the Examples was dissolved in DMSO and added to an experimental culture medium (DMEM; 0.05 μg/ml insulin, 0.1 mg/ml glucose and 18.5 kBq/ml [^14C]-glucose). The HepG2 cells were adjusted to a density of 0.75×10^6 cells/ml, inoculated into a 12 well plate in an amount of 1 ml/well and cultured overnight at 37° C. in an atmosphere of 5% CO2 (culture medium: DMEM, […] and 10% FBS), and the resulting cells were washed twice with PBS(−) buffer, mixed with the experimental culture medium in an amount of 0.5 ml/well and then cultured at 37° C. for 3 hours in an atmosphere of 5% CO2. After the culturing, the cells were washed twice with ice-cooled PBS(−) buffer and peeled off, and lipids were extracted from the resulting cells with a lipid extraction solution (chloroform:methanol=2:1). The extract was mixed with 2.5 ml of ethanol and 0.1 ml of 33% potassium hydroxide and incubated at 70° C. for 1 hour. Lipids were again extracted from the reaction mixture, and the extract was applied to a silica gel thin layer plate. This was developed with a developing solution (hexane:diethyl ether:acetic acid=80:20:1) and then the fatty acid iodine-coloring part was collected to measure its radioactivity using a liquid scintillation counter. The inhibition activity % (3.0×10^−5 M) of each compound was calculated.

For series [1], the target named is T1, acetyl-CoA carboxylase (ACC) (Rattus norvegicus, UniProt P11497).
T1 construct: subjected to decapitation and bloodletting under ether anesthesia to quickly take out the liver; from tissue; host or cells: rat liver (male SD rat, fasted then fed a high-sucrose feed)
The series is described as follows: Measurement of ACC inhibition activity (14C-bicarbonate incorporation, ACC purified from rat liver). The class given is biochemical. The settings on record: 5.6 × 10^−6 M compound; ACC purified from SD rat liver. Here is the method:
After 2 days of fasting, a male SD rat of 12 weeks of age was allowed to feed on a high sucrose feed (67% sucrose, 17.1% casein, 9.8% cellulose, 5% sodium chloride, 0.1% choline chloride and 1% vitamins) for 2 days and then subjected to decapitation and bloodletting under ether anesthesia to quickly take out the liver. The thus obtained liver was sliced in an ice-cooled buffer A (225 mM mannitol, 75 mM sucrose, 10 mM Tris/HCl (pH 7.5), 0.05 mM EDTA-2Na, 5 mM potassium citrate, 2.5 mM MnCl2, 10 mg/l aprotinin, 10 mg/l leupeptin and 10 mg/l antitrypsin) and then, after removal of moisture, adjusted to 5 ml/g by adding the buffer A and homogenized for 4 minutes using Polytron homogenizer. This was centrifuged for 10 minutes at 1,000 g and then the resulting supernatant was subjected to 10 minutes of high speed centrifugation at 17,000 g.
Ammonium sulfate was added to the thus obtained supernatant to a final concentration of 35%, and the mixture was stirred for 45 minutes and then subjected to 10 minutes of high speed centrifugation at 17,000 g. The thus obtained precipitate was mixed with 100 ml of a buffer B (100 mM Tris/HCl (pH 7.5), 0.5 M NaCl, 1 mM EDTA-2Na, 0.1 mM DTT, 10% glycerol, 10 mg/l aprotinin, 10 mg/l leupeptin and 10 mg/l antitrypsin) and subjected to 20 minutes of ultracentrifugation at 40,000, and the resulting supernatant was dialyzed overnight against 150 volumes of a buffer C (100 mM Tris/HCl (pH 7.5), 0.5 M NaCl, 1 mM EDTA-2Na, 0.1 mM DTT and 10% glycerol) and then filtered through a 5 μm filter. The filtrate was applied to a biotin affinity column, washed with the buffer B and then eluted with the buffer B supplemented with 5 mM biotin.
2. Measurement of ACC Inhibition Activity
Each of the compounds produced in the Examples was dissolved in DMSO, and the solution was put into a glass vial, mixed with 250 μl of an ACC-containing reagent 1 (40 mM Tris/HCl (pH 7.5), 40 mM MgCl2, 40 mM sodium citrate, 2 mM DTT and 100 μg/ml fatty acid-free BSA),incubated at 37° C. for 30 minutes in a thermostatic chamber, cooled with ice, mixed with 250 μl of a reagent 2 (40 mM Tris/HCl (pH 7.5), 2 mM DTT, 8 mM ATP and 0.5 mM acetyl-CoA) containing 74 kBq of NaH^14CO3, again incubated at 37° C. for 10 minutes in a thermostatic chamber and then mixed with 0.1 ml of 1 N HCl to terminate the reaction. After complete removal of moisture in the glass vial under a reduced pressure, an emulsified scintillator (Cleasol I) was added to the glass vial, and the ^14C radioactivity was measured using a liquid scintillation counter. […]
Inhibition activity ratio (%)=(1−radioactivity when a drug to be tested is added/radioactivity when the drug to be rested is not added)×100

Consider `CCCCCCCCCC(=O)NS(=O)(=O)c1ccccc1NC(=O)c1ccc(C#Cc2ccccc2)cc1` [Example 40, N-[2-(4-Phenylethynylbenzamido)benzenesulfonyl]decanamide], for which the melting point fell in the range of 155 to 156 °C. Besides, in the series on HepG2 cells, the inhibition at 30 µM is 57.4%. In series [1], this molecule displayed an inhibition at 5.6 µM of 76%.

The molecule `CCCCCCCCCC(=O)NS(=O)(=O)c1ccccc1NC(=O)c1cccc(OCc2ccc(C(C)(C)C)cc2)c1` [Example 31, N-[2-[3-(4-t-Butylbenzyloxy)benzamido]benzenesulfonyl]decanamide] gave a melting point of 132 to 133 °C. In the series on HepG2 cells, the inhibition at 30 µM worked out at 66.4%. Besides, the inhibition at 5.6 µM in series [1] amounted to 67.6%.

On to `CC(C)(C)c1ccc(COc2cccc(C(=O)Nc3ccccc3S(=O)(=O)NC(=O)/C=C/c3ccccc3)c2)cc1` [Example 13, N-[2-[3-(4-t-Butylbenzyloxy)benzamido]benzenesulfonyl]cinnamamide], for which the melting point was 110 to 111 °C. Moreover, the inhibition at 30 µM with HepG2 cells stood at 38.1%. For the same molecule, 5.6 µM produced 79.5% inhibition in series [1].

`O=C(Nc1ccccc1S(=O)(=O)NC(=O)c1ccccc1)c1cccc(OCc2ccccc2)c1` [Example 2, N-[2-(3-Benzyloxybenzamido)benzenesulfonyl]benzamide] gave a melting point of 201 to 202 °C. Further, the inhibition at 30 µM in the series with HepG2 cells worked out at 43.8%. In series [1], this molecule came in with an inhibition at 5.6 µM of 60.7%.

`CCCCCCCCCC(=O)NS(=O)(=O)c1ccccc1NC(=O)c1cccc(OCc2ccc(OC)cc2)c1` [Example 25, N-[2-[3-(4-methoxybenzyloxy)benzamido]benzenesulfonyl]decanamide] gave a melting point of 148 to 149 °C. Testing at 30 µM in the series with HepG2 cells gave an inhibition of 92%. This molecule also had an inhibition at 5.6 µM in series [1] of 81.6%.

In the case of `CCCCCC(=O)NS(=O)(=O)c1ccccc1NC(=O)c1cccc(OCc2ccc(C(C)(C)C)cc2)c1` [Example 30, N-[2-[3-(4-t-Butylbenzyloxy)benzamido]benzenesulfonyl]hexanamide], the melting point was 163 to 164 °C. The molecule also gave an inhibition at 30 µM in the series with HepG2 cells of 87.1%. This molecule returned an inhibition at 5.6 µM in series [1] of 53.2%.

Turning to `CCCCCCCCCC(=O)NS(=O)(=O)c1ccccc1NC(=O)c1cccc(OCC2CCCCC2)c1` [Example 28, N-[2-(3-Cyclohexylmethoxybenzamido)benzenesulfonyl]decanamide], the melting point lay within 124 to 127 °C. This molecule came in with an inhibition at 30 µM in the series with HepG2 cells of 84.6%. Besides, the inhibition at 5.6 µM in series [1] was 89.4%.

Molecule `C/C=C/C=C/C(=O)NS(=O)(=O)c1ccccc1NC(=O)c1ccc(C#Cc2ccccc2)cc1` [Example 43, trans-N-[2-(4-Phenylethynylbenzamido)benzenesulfonyl]-2,4-hexadienamide] registered a melting point of 208 to 209 °C. In addition, the inhibition at 30 µM with HepG2 cells was determined as 92.3%. This molecule also showed an inhibition at 5.6 µM in series [1] of 54.3%.

Turning to `CCCCC/C=C\C/C=C\CCCCCCCC(=O)NS(=O)(=O)c1ccccc1NC(=O)c1cccc(OCc2ccccc2)c1` [Example 15, N-[2-(3-Benzyloxybenzamido)benzenesulfonyl]linolamide], the inhibition at 30 µM with HepG2 cells came out at 30.6%. In series [1], this molecule displayed an inhibition at 5.6 µM of 84.8%.

On to `CCCCCCCCCC(=O)NS(=O)(=O)c1ccccc1NC(=O)c1cccc(OCc2ccc(Cl)cc2)c1` [Example 19, N-[2-[3-(4-Chlorobenzyloxy)benzamido]benzenesulfonyl]decanamide], for which the melting point fell in the range of 159 to 161 °C. The molecule also registered an inhibition at 30 µM in the series on HepG2 cells of 90.5%. 5.6 µM produced 83.3% inhibition in series [1].

With `CCCCCCCCCC(=O)NS(=O)(=O)c1ccccc1NC(=O)c1cccc(OCCCCCCC)c1` [Example 37, N-[2-(3-Heptyloxybenzamido]benzenesulfonyl]decanamide], the melting point lay in the range of 172 to 174 °C. The molecule further yielded an inhibition at 30 µM with HepG2 cells of 64.3%. In addition, the inhibition at 5.6 µM in series [1] is 83.6%.

Molecule `CCCCCCCCCC(=O)NS(=O)(=O)c1ccccc1NC(=O)c1ccc([N+](=O)[O-])c(OCc2ccccc2)c1` [Example 16, N-[2-(3-Benzyloxy-4-nitrobenzamido)benzenesulfonyl]decanamide] returned a melting point of 129 to 130 °C. In the series with HepG2 cells, this molecule had an inhibition at 30 µM of 94.3%. Moreover, in series [1], the inhibition at 5.6 µM stood at 79.9%.

`CCCCCCCCCC(=O)NS(=O)(=O)c1ccccc1NC(=O)c1cccc(OCc2ccccc2)c1` [Example 9, N-[2-(3-Benzyloxybenzamido)benzenesulfonyl]decanamide] showed a melting point of 85 to 86 °C. In the series on HepG2 cells, this molecule returned an inhibition at 30 µM of 86.8%. In addition, in series [1], the inhibition at 5.6 µM was found to be 65%.

The molecule `CCCCCCCCCC(=O)NS(=O)(=O)c1ccccc1NC(=O)c1cccc(OCc2ccc([N+](=O)[O-])cc2)c1` [Example 22, N-[2-[3-(4-Nitrobenzyloxy)benzamido]benzenesulfonyl]decananide] registered a melting point of 145 to 148 °C. This molecule had an inhibition at 30 µM with HepG2 cells of 95.2%. In addition, 5.6 µM produced 88.4% inhibition in series [1].

The molecule `CCCCCC(=O)NS(=O)(=O)c1ccccc1NC(=O)c1cccc(OCc2ccc(C(F)(F)F)cc2)c1` [Example 33, N-[2-[3-(4-Trifluoromethylbenzyloxy)benzamido]benzenesulfonyl]hexanamide] gave a melting point of 142 to 143 °C. In addition, the inhibition at 30 µM with HepG2 cells turned out to be 97.5%. The molecule also came in with an inhibition at 5.6 µM in series [1] of 52.3%.

The molecule `CCCCCCCCCC(=O)NS(=O)(=O)c1ccccc1NC(=O)c1cccc(OCc2ccc(C(F)(F)F)cc2)c1` [Example 34, N-[2-[3-(4-Trifluoromethylbenzyloxy)benzamido]benzenesulfonyl]decanamide] returned a melting point of 164 °C. In the series on HepG2 cells, this molecule showed an inhibition at 30 µM of 87.7%. In addition, at 5.6 µM the inhibition in series [1] was 81.3%.

In general, inhibition refers to the share of the control response that was lost under treatment. The low end stands for little suppression, the high end for strong suppression. By melting point is commonly meant the temperature of the solid-liquid transition.
